US11827663B2, “Use of UAP inhibitors to inhibit flux through the hexosamine biosynthetic pathway” (The Johns Hopkins University, priority 2014, dated 2023)
“Also recorded” adds a separate entry of the source.

Test system: O-GlcNAc protein modification
Assay: Western blot of O-GlcNAcylation with CTD110.6
Assay type: cell-based
Settings: 612, GS1049, SW1990 and PANC-1 cells, 40 μM or 60 μM, 48 h
Description: Exemplary CTD110.6 protein expression results were obtained for 612 cells (FIG. 17A); GS1049 cells (FIG. 17B); SE1990 cells (FIG. 17C); and PANC-1 cells (FIG. 17D) with either 40 μM or 60 μM Ac4Glc2Bz.
For example, as shown in FIG. 17A-17D, Ac4Glc2Bz could change O-GlcNAcylation in a dose-dependent manner in each cell of 612 cells (FIG. 17A); GS1049 (FIG. 17B); SW1990 (FIG. 17C) and PANC-1 (FIG. 17D). In particular, the band intensities of CTD110.6 (anti-O-GlcNAc antibody) from each treated cell decreased as the concentrations of Ac4Glc2Bz treatment were increased. 3×10^5 cells were plated in 6-well plates, with 2 wells per condition tested as indicated in FIG. 17A-D. After 48 h, proteins were collected after freezing for 15 minutes at −80° C. using extraction buffer consisting of 20 mM TrisHCl, pH 7.5, 1% v/v NP-40, 2 mM EDTA, 0.1 mM phenylmethylsulfonyl fluoride, phosphatase inhibitor cocktails 2 and 3 (1×) (SIGMA), ThiametG (10 nM) (Cayman Chemical), β-hexosaminidase inhibitor (5 μM) (Millipore), sodium fluoride (1 mM), and β-glycerophosphate (1 mM). The lysed cells were scraped, collected, and incubated on ice for 20 minutes while vortexing for 5-10 s ever 5 minutes. Samples were sonicated for 5 seconds and then centrifuged at 14,000 RPM for 20 minutes at 4° C. The supernatant was removed, normalized to 1 mg/mL, and 20 μg was loaded onto a 7.5% SDS-PAGE gel. […]

In the case of `CC(=O)OCC1OC(OC(C)=O)[C@@H](NC(=O)c2ccccc2)[C@@H](OC(C)=O)[C@@H]1OC(C)=O` (stereo partly shown) [Ac4Glc2Bz], the “O-GlcNAcylation, band intensities of CTD110.6” value is reported as “decreased; also recorded: changed”.
